Laboratory results published in ChEMBL document CHEMBL3232765, “Anti-mycobacterial activity of 1,3-diaryltriazenes” (Eur J Med Chem, 2014).

system: Mycobacterium tuberculosis; assay: Antimycobacterial activity against Mycobacterium tuberculosis H37Rv after 6 days by luciferase reporter gene assay; assay type: functional, organism-based; details: 144 h

| Structure (SMILES) | IC50 | IC90 | IC99 |
| --- | --- | --- | --- |
| COc1ccc(/C=C/C(=O)N(/N=N/c2ccc(Cl)c(C(F)(F)F)c2)c2ccc(Cl)c(C(F)(F)F)c2)c(OC)c1 | 52 µM | 80.8 µM | 84.4 µM |
| Fc1ccc(/N=N/Nc2ccc(F)cc2C(F)(F)F)c(C(F)(F)F)c1 | 85.5 µM | > 100 µM | > 100 µM |
| FC(F)(F)c1ccc(Cl)c(N=NNc2cc(C(F)(F)F)ccc2Cl)c1 | 97.5 µM | > 100 µM | > 100 µM |
| N#Cc1c(F)cccc1/N=N/Nc1cccc(F)c1C#N | 62.3 µM | > 100 µM | > 100 µM |
| COc1cc(/C=C/C(=O)N(/N=N/c2ccc(Cl)c(C(F)(F)F)c2)c2ccc(Cl)c(C(F)(F)F)c2)cc(OC)c1 | 71.3 µM | > 100 µM | > 100 µM |
| NNC(=O)c1ccncc1 [ISONIAZID] | 0.04 µM | 0.11 µM | 0.13 µM |
| N#Cc1cc(/N=N/Nc2ccc(F)c(C#N)c2)ccc1F | > 100 µM | > 100 µM | > 100 µM |
| COc1ccc(/C=C/C(=O)N(/N=N/c2ccc(Cl)cc2C(F)(F)F)c2ccc(Cl)cc2C(F)(F)F)c(OC)c1 | 83.1 µM | > 100 µM | > 100 µM |
| Fc1ccc(C(F)(F)F)cc1/N=N/Nc1cc(C(F)(F)F)ccc1F | 58.9 µM | > 100 µM | > 100 µM |
| COc1ccc(/C=C/C(=O)N(/N=N/c2cc(C(F)(F)F)ccc2Cl)c2cc(C(F)(F)F)ccc2Cl)c(OC)c1 | 72.3 µM | > 100 µM | > 100 µM |
| FC(F)(F)c1cc(Cl)ccc1/N=N/Nc1ccc(Cl)cc1C(F)(F)F | 93 µM | > 100 µM | > 100 µM |
| Clc1ccc(/N=N/Nc2ccc(Cl)cc2Cl)c(Cl)c1 | > 100 µM | > 100 µM | > 100 µM |
